These results are taken from patent US20240270698A2, “NOVEL PYRIMIDINE DERIVATIVE AND USE THEREOF” (KOREA RESEARCH INSTITUTE OF CHEMICAL TECHNOLOGY, priority 2019, published 2024).

Data set [1] addresses T1, human recombinant MLK3 protein (Homo sapiens, UniProt Q16584).
T1 construct: purchased Eurofins
In words: MLK3 kinase activity assay (Eurofins, gamma-33P-ATP, filtermat scintillation counting). The data set is classed as biochemical. The conditions noted are these: human recombinant MLK3, 120 minutes at room temperature.

Data set [2] addresses T2, human recombinant LRRK2 protein (Homo sapiens, UniProt Q5S007).
T2 construct: purchased Eurofins
In words: LRRK2 kinase activity assay (Eurofins, gamma-33P-ATP, filtermat scintillation counting). Type of data set: biochemical. The conditions noted are these: human recombinant LRRK2, 40 minutes at room temperature.

Another data set has as its system HepG2 cancer cells. In words: Anticancer activity, cell viability by CCK-8, HepG2. The data set is classed as cell-based. As to conditions: HepG2, 10 μM, 72 hours. In a few lines: (§1)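 HS746T or HepG2 cells seeded at 4,000 cells/well, left 24 h, then exposed to compounds for 72 h. Viability measured by CCK-8 and expressed as % of untreated control.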
In another data set the test system is HS746T cancer cells. In words: Anticancer activity, cell viability by CCK-8, HS746T. The data set is classed as cell-based. The conditions noted are these: 72 hours. In a few lines: as §1

T2 sequence (Q5S007 whole entry): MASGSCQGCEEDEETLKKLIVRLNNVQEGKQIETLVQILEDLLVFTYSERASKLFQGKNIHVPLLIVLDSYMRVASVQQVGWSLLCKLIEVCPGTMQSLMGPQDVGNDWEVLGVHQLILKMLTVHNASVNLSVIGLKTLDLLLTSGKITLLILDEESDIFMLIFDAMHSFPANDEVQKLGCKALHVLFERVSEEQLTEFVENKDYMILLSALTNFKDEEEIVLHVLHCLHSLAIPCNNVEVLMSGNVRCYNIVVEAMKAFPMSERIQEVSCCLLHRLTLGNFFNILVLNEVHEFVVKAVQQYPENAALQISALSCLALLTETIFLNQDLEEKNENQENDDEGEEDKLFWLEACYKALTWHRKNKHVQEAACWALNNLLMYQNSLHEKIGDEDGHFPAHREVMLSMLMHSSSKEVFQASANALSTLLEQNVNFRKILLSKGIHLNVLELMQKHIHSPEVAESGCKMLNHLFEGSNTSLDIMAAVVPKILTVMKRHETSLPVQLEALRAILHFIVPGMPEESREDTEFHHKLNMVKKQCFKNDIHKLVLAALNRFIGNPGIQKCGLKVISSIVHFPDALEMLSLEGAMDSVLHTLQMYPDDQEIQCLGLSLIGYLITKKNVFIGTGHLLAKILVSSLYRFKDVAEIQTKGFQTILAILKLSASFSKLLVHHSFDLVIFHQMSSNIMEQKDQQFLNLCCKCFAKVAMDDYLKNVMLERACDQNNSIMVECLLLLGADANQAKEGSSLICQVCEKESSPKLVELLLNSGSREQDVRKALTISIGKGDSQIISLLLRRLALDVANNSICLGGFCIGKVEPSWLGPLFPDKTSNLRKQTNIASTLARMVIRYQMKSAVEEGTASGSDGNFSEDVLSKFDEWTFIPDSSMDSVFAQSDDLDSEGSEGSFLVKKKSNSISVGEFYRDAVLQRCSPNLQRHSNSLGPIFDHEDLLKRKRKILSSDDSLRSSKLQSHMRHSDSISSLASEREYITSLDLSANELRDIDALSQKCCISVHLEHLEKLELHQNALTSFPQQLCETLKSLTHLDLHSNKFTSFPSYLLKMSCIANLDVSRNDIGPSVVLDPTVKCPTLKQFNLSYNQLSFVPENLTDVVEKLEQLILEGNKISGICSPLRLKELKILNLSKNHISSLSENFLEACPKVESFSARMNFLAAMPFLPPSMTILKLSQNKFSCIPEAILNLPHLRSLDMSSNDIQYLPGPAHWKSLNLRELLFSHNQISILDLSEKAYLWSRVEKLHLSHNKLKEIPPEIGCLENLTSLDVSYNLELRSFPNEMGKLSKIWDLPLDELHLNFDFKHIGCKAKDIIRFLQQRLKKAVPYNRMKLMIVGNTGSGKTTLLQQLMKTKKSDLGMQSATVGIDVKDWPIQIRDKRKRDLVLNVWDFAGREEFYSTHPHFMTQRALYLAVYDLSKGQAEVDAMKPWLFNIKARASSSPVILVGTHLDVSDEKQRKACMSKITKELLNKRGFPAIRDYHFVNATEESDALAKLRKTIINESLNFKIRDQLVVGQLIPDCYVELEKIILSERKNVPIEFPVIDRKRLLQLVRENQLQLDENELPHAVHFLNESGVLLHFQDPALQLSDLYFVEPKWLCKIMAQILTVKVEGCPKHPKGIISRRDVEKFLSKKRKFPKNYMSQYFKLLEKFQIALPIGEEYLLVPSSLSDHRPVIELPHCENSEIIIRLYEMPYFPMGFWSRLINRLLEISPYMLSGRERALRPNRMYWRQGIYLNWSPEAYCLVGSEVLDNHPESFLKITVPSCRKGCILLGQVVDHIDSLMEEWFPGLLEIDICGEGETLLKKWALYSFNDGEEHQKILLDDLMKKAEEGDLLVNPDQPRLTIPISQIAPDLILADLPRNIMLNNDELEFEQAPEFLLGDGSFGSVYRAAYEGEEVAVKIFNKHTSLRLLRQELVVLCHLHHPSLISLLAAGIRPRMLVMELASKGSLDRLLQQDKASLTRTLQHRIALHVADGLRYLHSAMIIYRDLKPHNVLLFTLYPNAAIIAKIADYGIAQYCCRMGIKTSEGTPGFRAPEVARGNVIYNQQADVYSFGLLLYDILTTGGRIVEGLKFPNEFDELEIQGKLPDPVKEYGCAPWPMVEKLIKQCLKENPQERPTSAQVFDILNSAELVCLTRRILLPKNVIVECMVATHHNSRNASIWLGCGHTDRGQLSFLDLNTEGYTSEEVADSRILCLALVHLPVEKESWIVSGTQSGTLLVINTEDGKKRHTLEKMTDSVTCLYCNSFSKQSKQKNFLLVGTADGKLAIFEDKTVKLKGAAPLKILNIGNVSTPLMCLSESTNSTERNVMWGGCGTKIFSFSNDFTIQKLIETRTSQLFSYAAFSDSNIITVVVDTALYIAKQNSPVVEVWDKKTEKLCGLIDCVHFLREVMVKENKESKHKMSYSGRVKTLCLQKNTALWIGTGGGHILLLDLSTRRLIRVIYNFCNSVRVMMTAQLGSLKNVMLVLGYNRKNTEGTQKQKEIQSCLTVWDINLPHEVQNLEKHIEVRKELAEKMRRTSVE
T1 sequence (Q16584 whole entry): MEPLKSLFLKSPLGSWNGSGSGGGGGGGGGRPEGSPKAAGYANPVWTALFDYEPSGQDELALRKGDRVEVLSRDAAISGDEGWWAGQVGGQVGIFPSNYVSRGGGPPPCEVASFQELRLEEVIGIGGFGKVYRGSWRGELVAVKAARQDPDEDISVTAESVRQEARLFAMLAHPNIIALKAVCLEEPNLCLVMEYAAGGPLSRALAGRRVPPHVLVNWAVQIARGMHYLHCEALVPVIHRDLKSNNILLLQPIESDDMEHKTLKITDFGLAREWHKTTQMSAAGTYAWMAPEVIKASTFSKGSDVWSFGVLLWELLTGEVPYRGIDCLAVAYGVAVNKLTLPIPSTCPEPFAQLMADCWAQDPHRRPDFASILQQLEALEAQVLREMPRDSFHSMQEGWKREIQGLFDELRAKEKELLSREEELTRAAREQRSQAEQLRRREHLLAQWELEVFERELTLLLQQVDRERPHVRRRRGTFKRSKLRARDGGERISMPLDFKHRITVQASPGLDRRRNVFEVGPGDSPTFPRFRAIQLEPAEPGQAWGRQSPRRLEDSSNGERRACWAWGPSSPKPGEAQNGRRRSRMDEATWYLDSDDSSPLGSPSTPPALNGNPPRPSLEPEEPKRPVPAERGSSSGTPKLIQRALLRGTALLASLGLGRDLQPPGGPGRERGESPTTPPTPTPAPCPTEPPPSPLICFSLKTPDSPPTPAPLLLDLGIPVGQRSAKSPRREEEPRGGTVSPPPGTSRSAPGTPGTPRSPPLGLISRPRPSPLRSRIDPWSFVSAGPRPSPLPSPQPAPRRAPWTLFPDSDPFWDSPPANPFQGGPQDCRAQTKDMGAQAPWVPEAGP

One may read the IC50 as the point on the concentration scale where inhibition reaches its midpoint. `CP(C)(=O)c1ccccc1Nc1nc(Nc2ccc3[nH]nc(-c4ccc(Cl)c(C(F)(F)F)c4)c3c2)ncc1Cl` [compound 111, (2-((5-Chloro-2-((3-(4-chloro-3-(trifluoromethyl)phenyl)-1H-indazol-5-yl)amino)pyrimidin-4-yl)amino)phenyl)dimethylphosphine oxide]: the values for the half-inhibitory concentration (IC50) in data set [1] and in data set [2] were 1 to 10 nM and 10 to 100 nM, respectively. For the same compound, the “Cell viability (% of Con. 10 μM) HepG2” value in the data set with HepG2 cancer cells is 7 % of Con. The “Cell viability (% of Con. 10 μM) HS746T” value with HS746T cancer cells was 7 % of Con.

For the compound `Cc1ccc(-c2n[nH]c3ccc(Nc4ncc(Cl)c(Nc5ccccc5P(C)(C)=O)n4)cc23)cc1Cl` [compound 112, (2-((5-Chloro-2-((3-(3-chloro-4-methylphenyl)-1H-indazol-5-yl)amino)pyrimidin-4-yl)amino)phenyl)dimethylphosphine oxide], the concentration for half-maximal inhibition (IC50) lay within 1 to 10 nM in data set [1] and 10 to 100 nM in data set [2]. Further, in the data set on HepG2 cancer cells, the “Cell viability (% of Con. 10 μM) HepG2” value was 6 % of Con. Besides, the “Cell viability (% of Con. 10 μM) HS746T” value with HS746T cancer cells is 7 % of Con.

For `COc1cc(Cl)cc(-c2n[nH]c3ccc(Nc4ncc(Cl)c(Nc5ccccc5P(C)(C)=O)n4)cc23)c1` [compound 113, (2-((5-Chloro-2-((3-(3-chloro-5-methoxyphenyl)-1H-indazol-5-yl)amino)pyrimidin-4-yl)amino)phenyl)dimethylphosphine oxide], the 50% inhibitory concentration (IC50) in data set [1] is 1 to 10 nM; in data set [2], 10 to 100 nM. Moreover, the “Cell viability (% of Con. 10 μM) HepG2” value in the data set on HepG2 cancer cells is recorded as 16 % of Con. The “Cell viability (% of Con. 10 μM) HS746T” value with HS746T cancer cells was 26 % of Con.

As for `CP(C)(=O)c1ccccc1Nc1nc(Nc2ccc3[nH]nc(-c4ccc(S(C)(=O)=O)cc4)c3c2)ncc1Cl` [compound 114, (2-((5-Chloro-2-((3-(4-(methylsulfonyl)phenyl)-1H-indazol-5-yl)amino)pyrimidin-4-yl)amino)phenyl)dimethylphosphine oxide], the IC50 in data set [1] was in the range of 1 to 10 nM; in data set [2] it was 10 to 100 nM. In the data set with HepG2 cancer cells, the “Cell viability (% of Con. 10 μM) HepG2” value is 68 % of Con. Besides, the “Cell viability (% of Con. 10 μM) HS746T” value in the data set with HS746T cancer cells was 33 % of Con.

In the case of `CC(C)Oc1cc(F)cc(-c2n[nH]c3ccc(Nc4ncc(Cl)c(Nc5ccccc5P(C)(C)=O)n4)cc23)c1` [compound 115, (2-((5-Chloro-2-((3-(3-fluoro-5-isopropoxyphenyl)-1H-indazol-5-yl)amino)pyrimidin-4-yl)amino)phenyl)dimethylphosphine oxide], the half-maximal inhibitory concentration (IC50) in data set [1] and in data set [2] was 1 to 10 nM throughout. Further, the “Cell viability (% of Con. 10 μM) HepG2” value in the data set with HepG2 cancer cells is on record as 50 % of Con. Also, the “Cell viability (% of Con. 10 μM) HS746T” value with HS746T cancer cells is given as 10 % of Con.

Regarding `CP(C)(=O)c1ccccc1Nc1nc(Nc2ccc3[nH]nc(-c4cccc(C#N)c4)c3c2)ncc1Cl` [compound 116, 3-(5-((5-Chloro-4-((2-(dimethylphosphoryl)phenyl)amino)pyrimidin-2-yl)amino)-1H-indazol-3-yl)benzonitrile], the figures for the IC50 in data set [1] and in data set [2] were 1 to 10 nM and 10 to 100 nM, respectively. Besides, in the data set with HepG2 cancer cells, the “Cell viability (% of Con. 10 μM) HepG2” value is 32 % of Con. The “Cell viability (% of Con. 10 μM) HS746T” value in the data set with HS746T cancer cells was 19 % of Con.

In the case of `CC(C)(C)OC(=O)N1CCN(c2ccc(-c3n[nH]c4ccc(Nc5ncc(Cl)c(Nc6ccccc6P(C)(C)=O)n5)cc34)cc2)CC1` [compound 117, Tert-butyl 4-(4-(5-((5-chloro-4-((2-(dimethylphosphoryl)phenyl)amino)pyrimidin-2-yl)amino)-1H-indazol-3-yl)phenyl)piperazine-1-carboxylate], the results for the IC50 in data set [1] and in data set [2] were 1 to 10 nM and 10 to 100 nM, respectively. The “Cell viability (% of Con. 10 μM) HepG2” value in the data set on HepG2 cancer cells is listed as 68 % of Con. In addition, in the data set with HS746T cancer cells, the “Cell viability (% of Con. 10 μM) HS746T” value was 20 % of Con.

For the compound `CP(C)(=O)c1ccccc1Nc1nc(Nc2ccc3[nH]nc(-c4cccc(O)c4)c3c2)ncc1Cl` [compound 118, (2-((5-chloro-2-((3-(3-hydroxyphenyl)-1H-indazol-5-yl)amino)pyrimidin-4-yl)amino)phenyl)dimethylphosphine oxide], the values for the 50% inhibitory concentration (IC50) in data set [1] and in data set [2] were 1 to 10 nM and 10 to 100 nM, respectively. The “Cell viability (% of Con. 10 μM) HepG2” value in the data set on HepG2 cancer cells is given as 43 % of Con. For the same compound, in the data set on HS746T cancer cells, the “Cell viability (% of Con. 10 μM) HS746T” value was 5 % of Con.
